{"source": "ChEMBL document CHEMBL6153072", "about": "“Metabolically Stable Adenylation Inhibitors of Biotin Protein Ligase as Antibacterial Agents” (J Med Chem, 2025)", "type_in_all_cases": "functional", "key": {"[1]": {"system": "Mycobacterium tuberculosis", "assay": "Antimicrobial activity against Mycobacterium tuberculosis H37Rv harboring ultra-under-expression of BPL by broth microdilution assay"}, "[2]": {"system": "Mycobacterium tuberculosis", "assay": "Antimicrobial activity against Mycobacterium tuberculosis H37Rv harboring high over-expression of BPL by broth microdilution assay"}, "[3]": {"system": "Mycobacterium tuberculosis", "assay": "Antimicrobial activity against Mycobacterium tuberculosis H37Rv harboring medium over-expression of BPL by broth microdilution assay"}, "[4]": {"system": "Mycobacterium tuberculosis", "assay": "Antimicrobial activity against Mycobacterium tuberculosis H37Rv harboring medium under-expression of BPL by broth microdilution assay"}}, "data": [{"smiles": "CC(CCC[C@@H]1SC[C@@H]2NC(=O)N[C@@H]21)C(=O)[N-]S(=O)(=O)NC[C@H]1O[C@@H](n2cnc3c(N)ncnc32)[C@H](O)[C@@H]1O.[Na+]", "note": "(some centres undefined)", "values": [{"measurement": "MIC50", "setting": "[1]", "result": 0.79, "unit": "µM"}, {"measurement": "MIC50", "setting": "[2]", "result": "> 100", "unit": "µM"}, {"measurement": "MIC50", "setting": "[3]", "result": "> 100", "unit": "µM"}, {"measurement": "MIC50", "setting": "[4]", "result": 3.7, "unit": "µM"}]}, {"smiles": "Nc1ncnc2c1ncn2[C@@H]1O[C@H](CNS(=O)(=O)[N-]C(=O)NCCC[C@@H]2SC[C@@H]3NC(=O)N[C@@H]32)[C@@H](O)[C@H]1O.[Na+]", "values": [{"measurement": "MIC50", "setting": "[1]", "result": 0.28, "unit": "µM"}, {"measurement": "MIC50", "setting": "[2]", "result": "> 100", "unit": "µM"}, {"measurement": "MIC50", "setting": "[3]", "result": "> 100", "unit": "µM"}, {"measurement": "MIC50", "setting": "[4]", "result": 0.89, "unit": "µM"}]}, {"smiles": "Nc1ncnc2c1ncn2[C@@H]1O[C@H](CNS(=O)(=O)[N-]C(=O)CCCC[C@@H]2SC[C@@H]3NC(=O)N[C@@H]32)[C@@H](O)[C@H]1O.[Na+]", "values": [{"measurement": "MIC50", "setting": "[1]", "result": 0.047, "unit": "µM"}, {"measurement": "MIC50", "setting": "[2]", "result": 16, "unit": "µM"}, {"measurement": "MIC50", "setting": "[3]", "result": 11, "unit": "µM"}, {"measurement": "MIC50", "setting": "[4]", "result": 0.14, "unit": "µM"}]}, {"smiles": "Nc1cccc2c1ncn2CCCCNS(=O)(=O)NC(=O)CCCC[C@@H]1SC[C@@H]2NC(=O)N[C@@H]21", "values": [{"measurement": "MIC50", "setting": "[1]", "result": 16, "unit": "µM"}, {"measurement": "MIC50", "setting": "[4]", "result": 18, "unit": "µM"}]}]}
